For this test, the target named is p300 histone acetyltransferase (Homo sapiens, UniProt Q09472). Description: in vitro histone acetyltransferase assay with purified human p300. In kind it is biochemical.

For one compound, IC50 results are on record in paper PMC3923627 (Cell reports, 2013).

Molecules are shown by their SMILES.

Sequence of p300 histone acetyltransferase (Q09472 2-2414): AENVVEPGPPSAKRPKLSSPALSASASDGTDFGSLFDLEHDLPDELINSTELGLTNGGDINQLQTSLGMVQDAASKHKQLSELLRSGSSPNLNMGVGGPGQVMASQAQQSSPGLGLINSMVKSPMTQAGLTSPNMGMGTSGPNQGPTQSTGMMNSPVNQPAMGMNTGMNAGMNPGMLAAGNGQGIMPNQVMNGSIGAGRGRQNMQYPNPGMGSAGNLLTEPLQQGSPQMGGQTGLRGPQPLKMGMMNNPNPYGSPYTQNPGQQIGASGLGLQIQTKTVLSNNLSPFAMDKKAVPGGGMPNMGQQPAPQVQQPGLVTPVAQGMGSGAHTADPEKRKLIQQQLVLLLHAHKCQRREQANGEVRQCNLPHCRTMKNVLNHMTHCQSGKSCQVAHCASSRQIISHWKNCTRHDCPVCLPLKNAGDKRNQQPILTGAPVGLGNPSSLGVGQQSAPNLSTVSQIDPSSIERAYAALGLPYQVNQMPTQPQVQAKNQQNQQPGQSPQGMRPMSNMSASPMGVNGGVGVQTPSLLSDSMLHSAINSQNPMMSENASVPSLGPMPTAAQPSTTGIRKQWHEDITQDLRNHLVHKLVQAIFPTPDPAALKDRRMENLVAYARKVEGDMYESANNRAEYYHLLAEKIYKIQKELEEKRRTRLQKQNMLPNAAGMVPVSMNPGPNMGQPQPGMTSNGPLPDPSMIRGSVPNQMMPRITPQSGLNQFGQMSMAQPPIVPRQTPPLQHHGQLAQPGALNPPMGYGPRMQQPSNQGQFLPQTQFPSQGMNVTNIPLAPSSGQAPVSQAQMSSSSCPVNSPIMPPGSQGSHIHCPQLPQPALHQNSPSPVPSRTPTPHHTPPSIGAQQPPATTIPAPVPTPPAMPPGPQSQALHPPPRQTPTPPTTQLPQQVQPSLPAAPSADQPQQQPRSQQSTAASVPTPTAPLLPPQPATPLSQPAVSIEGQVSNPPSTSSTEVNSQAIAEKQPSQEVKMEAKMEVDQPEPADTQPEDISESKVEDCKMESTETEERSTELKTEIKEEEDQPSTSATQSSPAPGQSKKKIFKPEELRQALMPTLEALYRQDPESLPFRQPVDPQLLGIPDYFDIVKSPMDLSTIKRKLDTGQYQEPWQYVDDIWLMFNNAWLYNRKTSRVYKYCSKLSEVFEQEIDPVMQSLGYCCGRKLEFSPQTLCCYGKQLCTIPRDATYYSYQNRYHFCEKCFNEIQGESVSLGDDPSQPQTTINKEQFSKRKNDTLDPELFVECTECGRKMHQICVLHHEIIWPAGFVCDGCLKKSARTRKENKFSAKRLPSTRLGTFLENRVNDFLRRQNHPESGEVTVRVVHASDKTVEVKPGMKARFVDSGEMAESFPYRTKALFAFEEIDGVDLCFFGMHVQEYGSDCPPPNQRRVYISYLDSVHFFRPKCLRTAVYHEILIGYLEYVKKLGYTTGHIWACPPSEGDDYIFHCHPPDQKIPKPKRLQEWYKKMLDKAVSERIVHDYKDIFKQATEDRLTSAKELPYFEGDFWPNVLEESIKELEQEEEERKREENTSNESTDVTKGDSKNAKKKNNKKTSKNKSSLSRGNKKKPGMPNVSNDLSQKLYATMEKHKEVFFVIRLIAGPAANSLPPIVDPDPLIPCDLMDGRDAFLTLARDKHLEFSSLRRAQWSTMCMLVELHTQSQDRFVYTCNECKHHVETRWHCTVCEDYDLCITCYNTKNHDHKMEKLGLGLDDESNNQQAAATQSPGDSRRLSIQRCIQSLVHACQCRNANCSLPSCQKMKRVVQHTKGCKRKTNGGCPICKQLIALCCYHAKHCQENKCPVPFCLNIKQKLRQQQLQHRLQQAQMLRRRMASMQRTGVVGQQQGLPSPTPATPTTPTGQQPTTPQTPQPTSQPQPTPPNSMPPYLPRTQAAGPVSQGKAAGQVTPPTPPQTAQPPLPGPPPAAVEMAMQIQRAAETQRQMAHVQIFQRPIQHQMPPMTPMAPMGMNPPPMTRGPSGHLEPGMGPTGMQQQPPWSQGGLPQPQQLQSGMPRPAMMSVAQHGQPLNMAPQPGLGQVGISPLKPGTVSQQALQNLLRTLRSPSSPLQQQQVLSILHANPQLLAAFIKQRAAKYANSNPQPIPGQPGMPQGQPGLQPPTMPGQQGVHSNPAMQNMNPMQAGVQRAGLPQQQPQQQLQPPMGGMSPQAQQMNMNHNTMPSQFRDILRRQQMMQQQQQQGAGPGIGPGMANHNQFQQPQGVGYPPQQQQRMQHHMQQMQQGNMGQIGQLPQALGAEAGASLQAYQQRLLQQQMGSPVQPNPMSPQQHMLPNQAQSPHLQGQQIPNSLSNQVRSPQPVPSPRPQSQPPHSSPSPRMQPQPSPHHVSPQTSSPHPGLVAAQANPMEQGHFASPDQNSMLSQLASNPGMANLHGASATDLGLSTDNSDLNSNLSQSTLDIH

Usually IC50 stands for the point on the concentration scale where inhibition reaches its midpoint. Lower therefore signals inhibition by little substance. In turn, `COc1ccc(/C(Cl)=C(/C=O)c2ccc(OC)cc2)cc1` [WD, (Z) 3-chloro-2,3-bis(4-methoxyphenyl)acrylaldehyde] registered an IC50 of 4.2 µM.
